Assay [1] has as its system Plasmopara viticola (downy mildew). The assay is described as follows: Foliar spray fungicide test, Plasmopara viticola (downy mildew) on grape. The settings on record: for pest or weed control at 400 µg/mL: Plasmopara viticola, foliar, read-out: PLASVI disease control.
Assay [2] deals with Pyricularia oryzae (rice blast). As to the kind of experiment: whole plant or invertebrate. The format is in vivo. The settings on record: Pyricularia oryzae, foliar, read-out: PYRIOR disease control, host rice; foliar spray; 400 ppm (+++: 100 ppm).
Assay [3] relates to Erysiphe graminis tritici (powdery mildew). The assay is described as follows: Foliar spray fungicide test, Erysiphe graminis tritici (powdery mildew) on wheat. The settings on record: Blumeria graminis, in Triticum aestivum, foliar, read-out: ERYSGT disease control, host wheat, 400 ppm (+++: 100 ppm).
Procedure: (§1) The test compounds were formulated for application by dissolving 50 mg of the compound into 1.25 ml of solvent. The solvent was prepared by mixing 50 ml of "Tween 20" (polyoxyethylene (20) sorbitan monolaurate emulsifier) with 475 ml of acetone and 475 ml of ethanol. The solvent/compound solution was diluted to 125 ml with deionized water. The resulting formulation contains 400 ppm test chemical. Lower concentrations were obtained by serial dilution with the solvent-surfactant mixture.
(§2) The formulated test compounds were applied by foliar spray. The following plant pathogens and their corresponding plants were employed.
(§3) The formulated technical compounds were sprayed on all foliar surfaces of the host plants to past run-off. Single pots of each host plant were placed on raised, revolving pedestals in a fume hood. Test solutions were sprayed on all foliar surfaces. All treatments were allowed to dry and the plants were inoculated with the appropriate pathogens within 24 hours.
(§4) The effectiveness of test compounds in controlling disease was rated using the following scale.
Assay [4] deals with Leptosphaeria nodorum (glume blotch). The assay is described as follows: Foliar spray fungicide test, Leptosphaeria nodorum (glume blotch) on wheat. The settings on record: Parastagonospora nodorum, in Triticum aestivum, foliar, read-out: LETPNO disease control, host wheat, 400 ppm (+++: 100 ppm).
Procedure: as §1
The formulated test compounds were applied by foliar spray.
as §3, §4
Assay [5] concerns Puccinia recondita tritici (leaf rust). As to the kind of experiment: Foliar spray fungicide test, Puccinia recondita tritici (leaf rust) on wheat. As to conditions: Puccinia recondita, in Triticum aestivum, foliar, read-out: PUCCRT disease control, host wheat, 400 ppm (+++: 100 ppm).
Procedure: as §1, §2
Puccinia recondita PUCCRT wheat
as §3, §4

For `FC(F)(F)c1cnc(Oc2ccc(CCNc3ncnc4cccnc34)cc2)c(Cl)c1` [Compound 2], the pest or weed control at 400 µg/mL is 90 to 100% in assay [1]; 90 to 100% in assay [2]; 90 to 100% in assay [3]; 20 to 89% in assay [4]; 90 to 100% in assay [5].
As to `N#Cc1cccnc1Oc1ccc(CCOc2ncnc3c(F)cccc23)cc1` [Compound 3], the pest or weed control at 400 µg/mL was 90 to 100% in assay [1]; 20 to 89% in assay [2]; 20 to 89% in assay [3]; 20 to 89% in assay [4]; 20 to 89% in assay [5].
`N#Cc1cccnc1Oc1ccc(CCOc2ncnc3cccc(F)c23)cc1` [Compound 4]: the pest or weed control at 400 µg/mL was 20 to 89% in assay [1]; 0 to 19% in assay [2]; 20 to 89% in assay [3]; 0 to 19% in assay [4]; 0 to 19% in assay [5].
On to `O=[N+]([O-])c1cccnc1Oc1ccc(CCOc2ncnc3c(F)cccc23)cc1` [Compound 8], for which the pest or weed control at 400 µg/mL in assay [1] lay within 90 to 100%; in assay [2] it was 20 to 89%; in assay [3], 90 to 100%; in assay [4], 20 to 89%; in assay [5] it was 20 to 89%.
`O=[N+]([O-])c1cccnc1Oc1ccc(CCOc2ncnc3cccc(F)c23)cc1` [Compound 9]: the pest or weed control at 400 µg/mL in assay [1] was 90 to 100%; in assay [2], 0 to 19%; in assay [3], 0 to 19%; in assay [4], 0 to 19%; in assay [5], 0 to 19%.
In the case of `Fc1cccc2c(OCCc3ccc(Oc4ncccc4C(F)(F)F)cc3)ncnc12` [Compound 10], the pest or weed control at 400 µg/mL in assay [1], in assay [2], in assay [3], in assay [4] and in assay [5] was 90 to 100% throughout.
For `Fc1cccc2c(NCCc3ccc(Oc4ncccc4C(F)(F)F)cc3)ncnc12` [Compound 11], in assay [1] (host grape, foliar spray, 400 ppm (+++: 100 ppm)), the PLASVI disease control entry is on record as “+ ++”. The pest or weed control at 400 µg/mL in assay [2], in assay [3], in assay [4] and in assay [5] was 90 to 100% throughout.
For the molecule `Fc1cccc2c(NCCc3ccc(Oc4cc(C(F)(F)F)ccn4)cc3)ncnc12` [Compound 14], the pest or weed control at 400 µg/mL was in the range of 90 to 100% in assay [1]; 90 to 100% in assay [2]; 90 to 100% in assay [3]; 20 to 89% in assay [4]; 90 to 100% in assay [5].
For `Fc1cccc2c(OCCc3ccc(Oc4ccc(Cl)cn4)cc3)ncnc12` [Compound 17], the pest or weed control at 400 µg/mL in assay [1] is 90 to 100%; in assay [2] it was 90 to 100%; in assay [3] it was 90 to 100%; in assay [4], 20 to 89%; in assay [5] it was 90 to 100%.
Consider `O=[N+]([O-])c1ccc(Oc2ccc(CCNc3ncnc4c(F)cccc34)cc2)nc1` [Compound 24], for which the pest or weed control at 400 µg/mL in assay [1] is 90 to 100%; in assay [2], 20 to 89%; in assay [3], 0 to 19%; in assay [4], 20 to 89%; in assay [5] it was 20 to 89%.
In the case of `FC(F)(F)c1ccc(Oc2ccc(CCOc3ncnc4ncccc34)cc2)nc1` [Compound 30], the pest or weed control at 400 µg/mL in assay [1] was in the range of 90 to 100%; in assay [2], 90 to 100%; in assay [3] it was 90 to 100%; in assay [4], 0 to 19%; in assay [5], 90 to 100%.
For `FC(F)(F)c1ccc(Oc2ccc(CCNc3ncnc4ncccc34)cc2)nc1` [Compound 31], the pest or weed control at 400 µg/mL in assay [1] was in the range of 90 to 100%; in assay [2], 20 to 89%; in assay [3], 20 to 89%; in assay [4], 20 to 89%; in assay [5], 90 to 100%.
Regarding `FC(F)(F)c1ccc(Oc2ccc(CCNc3ncnc4cccnc34)cc2)nc1` [Compound 32], the pest or weed control at 400 µg/mL in assay [1], in assay [2], in assay [3], in assay [4] and in assay [5] was 90 to 100% throughout.
As for `Fc1cccc2c(OCCc3ccc(Oc4cccc(OCC(F)(F)F)n4)cc3)ncnc12` [Compound 33], the pest or weed control at 400 µg/mL in assay [1] was 90 to 100%; in assay [2], 20 to 89%; in assay [3], 90 to 100%; in assay [4], 0 to 19%; in assay [5], 90 to 100%.
As to `Fc1cccc2c(OCCc3ccc(Oc4cccc(C(F)(F)F)n4)cc3)ncnc12` [Compound 36], the pest or weed control at 400 µg/mL was 90 to 100% in assay [1]; 90 to 100% in assay [2]; 90 to 100% in assay [3]; 20 to 89% in assay [4]; 90 to 100% in assay [5].
On to `Fc1cccc2c(NCCc3ccc(Oc4cccc(C(F)(F)F)n4)cc3)ncnc12` [Compound 37], for which the pest or weed control at 400 µg/mL in assay [1] lay in the range of 90 to 100%; in assay [2], 20 to 89%; in assay [3], 90 to 100%; in assay [4], 90 to 100%; in assay [5] it was 90 to 100%.
Turning to `Fc1cccc2c(NCCc3ccc(Oc4cccc(C(F)(F)F)n4)cc3)ccnc12` [Compound 40, 8-Fluoro-4-(2-(4-(6-(trifluoromethyl)-2-pyridinyloxy)phenyl)ethylamino)quinoline], the pest or weed control at 400 µg/mL in assay [1] lay within 90 to 100%; in assay [2], 20 to 89%; in assay [3], 90 to 100%; in assay [4] it was 20 to 89%; in assay [5] it was 90 to 100%.
`Brc1cnc(Oc2ccc(CCOc3ncnc4ccccc34)cc2)nc1` [Compound 46]: the pest or weed control at 400 µg/mL in assay [1] lay within 0 to 19%; in assay [2] it was 0 to 19%; in assay [3], 20 to 89%; in assay [4], 20 to 89%; in assay [5], 20 to 89%.
Take `Clc1cnc(Oc2ccc(CCOc3ncnc4ccccc34)cc2)nc1` [Compound 47]: the pest or weed control at 400 µg/mL in assay [1] fell in the range of 20 to 89%; in assay [2] it was 20 to 89%; in assay [3], 90 to 100%; in assay [4], 0 to 19%.
As for `Fc1cccc2c(OCCc3ccc(Oc4ncc(Cl)cn4)cc3)ccnc12` [Compound 48], the pest or weed control at 400 µg/mL lay in the range of 20 to 89% in assay [1], 0 to 19% in assay [2], 20 to 89% in assay [3] and 0 to 19% in assay [4].
Consider `Clc1ccc(Oc2ccc(CCOc3ncnc4ccccc34)cc2)nn1` [Compound 49], for which the pest or weed control at 400 µg/mL lay within 90 to 100% in assay [1]; 0 to 19% in assay [2]; 20 to 89% in assay [3]; 0 to 19% in assay [4]; 20 to 89% in assay [5].

The values are drawn from patent publication US5326766A, “4-(2-(4-(2-pyridinyloxy)phenyl)ethoxy)quinazoline and analogues thereof” (priority 1992, dated 1994).
